Experimental data published in patent publication US20240279239A1, “COMPOUNDS AND METHODS FOR MODULATING SPLICING” (REMIX THERAPEUTICS INC., priority 2020, published 2024).
Counter-ions that a name gives are not always drawn. Like-named read-outs stand apart in the source and are kept apart here.

What was measured:
Type in all cases: cell-based
HTT [1] = experiment: RT-qPCR splicing assay for HTT mRNA isoforms (canonical junction CJ and alternative junction AJ); settings: A673 or K562 cell line, 24 hours treatment
Method: (§1) Example 44: Exemplary splicing assay for monitoring expression levels of splice variants Compounds described herein were used to modulate RNA transcript abundance in cells. The expression of a target mRNA was measured by detecting the formation of an exon-exon junction in the canonical transcript (CJ). A compound mediated exon-inclusion event was detected by observing an increase in formation of a new junction with an alternative exon (AJ). Real-time qPCR assays were used to detect these splicing switches and interrogate the potency of various compounds towards different target genes. A high-throughput real time quantitative PCR (RT-qPCR) assay was developed to measure these two isoforms of the mRNA (CJ and AJ) for an exemplary gene, HTT, together with a control housekeeping gene, GAPDH or GUSB or PPIA, used for normalization. Briefly, the A673 or K562 cell line was treated with various compounds described herein (e.g., compounds of Formula (I)). After treatment, the levels of the HTT mRNA targets were determined from each sample of cell lysate by cDNA synthesis followed by qPCR.
(§2) The A673 cell line was cultured in DMEM with 10% FBS. Cells were diluted with full growth media and plated in a 96-well plate (15,000 cells in 100 µl media per well). The plate was incubated at 37° C. with 5% CO2 for 24 hours to allow cells to adhere. An 11-point 3-fold serial dilution of the compounds was made in DMSO then diluted in media in an intermediate plate. Compounds were transferred from the intermediate plate to the cell plate with the top dose at a final concentration of 10 uM in the well. Final DMSO concentration was kept at or below 0.25%. The cell plate was returned to the incubator at 37° C. with 5% CO2 for an additional 24 hours.
(§3) The K562 cell line was cultured in IMDM with 10% FBS. For K562, cells were diluted with full growth media and plated in either a 96-well plate (50,000 cells in 50 uL media per well) or a 384-well plate (8,000-40,000 cells in 45 uL media per well). An 11-point 3-fold serial dilution of the compounds were made in DMSO then diluted in media in an intermediate plate. Compound was transferred from the intermediate plate to the cell plate with the top dose at a final concentration of 10 uM in the well. Final DMSO concentration was kept at or below 0.25%. Final volume was 100 uL for 96-well plate and 50 uL for 384-well plate. The cell plate was then placed in an incubator at 37° C. with 5% CO2 for 24 hours.
(§4) The cells were then gently washed with 50 uL-100 uL cold PBS before proceeding to addition of lysis buffer. 30 uL-50 uL of room temperature lysis buffer with DNAse I (and optionally RNAsin) was added to each well. Cells were shaken/mixed thoroughly at room temperature for 5-10 minutes for lysis to take place and then 3 uL-5 uL of room temperature stop solution was added and wells were shaken/mixed again. After 2-5 minutes, the cell lysate plate was transferred to ice for RT-qPCR reaction setup. The lysates could also be frozen at ˜80° C. for later use.
(§5) In some cases, a direct lysis buffer was used. An appropriate volume of 3× lysis buffer (10 mM Tris, 150 mM NaCl, 1.5%-2.5% Igepal and 0.1-1 U/uL RNAsin, pH 7.4) was directly added to either K562 or A673 cells in media and mixed by pipetting 3 times. The plates were then incubated at room temperature with shaking/rocking for 20-50 minutes to allow for lysis to take place. After this time, the cell lysate plate was transferred to ice to set up for the RT-qPCR reactions. The lysates could also be frozen at −80° C. for later use.
(§6) To set up 10 uL RT-qPCR reactions, cell lysates were transferred to 384-well qPCR plates containing the master mix according to the table below. The plates were sealed, gently vortexed, and spun down before the run. The volumes were adjusted accordingly in some instances where the reaction was carried in 20 uL. The table below summarizes the components of the RT-qPCR reactions: […]

HTT [2] = experiment: RT-qPCR canonical junction panel assay, HTT; settings: gene panel, read-out: HTT IC50 (decrease in CJ mRNA levels)
Method: as §1, §2, §3, §4, §5, §6

SMN2 = experiment: RT-qPCR canonical junction panel assay, SMN2; settings: gene panel, read-out: SMN2 IC50 (decrease in CJ mRNA levels)
Method: as §1, §2, §3, §4, §5, §6

Target C = experiment: RT-qPCR canonical junction panel assay, Target C; settings: gene panel, read-out: Target C IC50 (decrease in CJ mRNA levels)
Method: as §1, §2, §3, §4, §5, §6

[3] = decrease in CJ mRNA levels, read-out: HTT CJ AC50
[4] = increase in AJ mRNA, read-out: HTT AJ AC50

Structure (SMILES)	AC50 (HTT [1]; [3]) [µM]	AC50 (HTT [1]; [4]) [µM]	IC50 (HTT [2]) [µM]	IC50 (SMN2) [µM]	IC50 (Target C) [µM]
Cc1cn2cc(-c3nn4c(=O)cc(N5CCN(C)C6(CC6)C5)nc4s3)cc(F)c2n1 [Compound 218, 2-(8-fluoro-2-methylimidazo[1,2-α]pyridin-6-yl)-7-(4-methyl-4,7-diazaspiro[2.5]octan-7-yl)-5H-[1,3,4]thiadiazolo[3,2-α]pyrimidin-5-one]	1 to 10	1 to 10	1 to 10	1 to 10	1 to 10
Cn1cc2cc(-n3cnc4nc(N5CCNCC5)sc4c3=O)ccc2n1 [Compound 225, 6-(2-methyl-2H-indazol-5-yl)-2-(piperazin-1-yl)thiazolo[4,5-d]pyrimidin-7(6H)-one]	> 10	> 10	> 10	> 10	> 10
Cc1cn2cc(-n3cnc4nc(N5CCNCC5)sc4c3=O)cc(F)c2n1 [Compound 226, 6-(8-fluoro-2-methylimidazo[1,2-α]pyridin-6-yl)-2-(piperazin-1-yl)thiazolo[4,5-d]pyrimidin-7(6H)-one]	0.1 to 1	0.1 to 1	0.1 to 1	0.1 to 1	0.1 to 1
Cc1cn2cc(-n3cnc4nc(N(C)C5CC(C)(C)NC(C)(C)C5)sc4c3=O)cc(F)c2n1 [Compound 227, 6-(8-fluoro-2-methylimidazo[1,2-α]pyridin-6-yl)-2-(methyl(2,2,6,6-tetramethylpiperidin-4-yl)amino)thiazolo[4,5-d]pyrimidin-7(6H)-one, formate]	> 10	> 10	> 10	> 10	> 10
Cc1cn2cc(-n3cnc4nc(N5CCN(C)CC5)sc4c3=O)cc(F)c2n1 [Compound 228, 6-(8-fluoro-2-methylimidazo[1,2-α]pyridin-6-yl)-2-(4-methylpiperazin-1-yl)thiazolo[4,5-d]pyrimidin-7(6H)-one]	1 to 10	1 to 10	1 to 10	1 to 10	1 to 10
Cc1cn2cc(-n3cnc4nc(N5CCNCC5)sc4c3=O)cc(C(F)(F)F)c2n1 [Compound 229, 6-(2-methyl-8-(trifluoromethyl)imidazo[1,2-α]pyridin-6-yl)-2-(piperazin-1-yl)thiazolo[4,5-d]pyrimidin-7(6H)-one]	> 10	> 10	> 10	> 10	> 10
Cc1cn2cc(-n3cnc4nc(N5CCN(C)CC5)sc4c3=O)cc(C(F)(F)F)c2n1 [Compound 230, 6-(2-methyl-8-(trifluoromethyl)imidazo[1,2-α]pyridin-6-yl)-2-(4-methylpiperazin-1-yl)thiazolo[4,5-d]pyrimidin-7(6H)-one]	> 10	> 10	> 10	> 10	> 10
Cc1cn2nc(-c3nc4ncn(C5CCNCC5)c(=O)c4s3)cc(C)c2n1 [Compound 231, 2-(2,8-dimethylimidazo[1,2-b]pyridazin-6-yl)-6-(piperidin-4-yl)thiazolo[4,5-d]pyrimidin-7(6H)-one]	0.1 to 1	0.1 to 1	0.1 to 1	1 to 10	1 to 10
Cc1cn2cc(-c3nc4ncn(C5CCNCC5)c(=O)c4s3)cc(F)c2n1 [Compound 232, 2-(8-fluoro-2-methylimidazo[1,2-α]pyridin-6-yl)-6-(piperidin-4-yl)thiazolo[4,5-d]pyrimidin-7(6H)-one]	< 0.1	< 0.1	< 0.1	< 0.1	0.1 to 1
Cc1cc(-c2nc3ncn(C4CCNCC4)c(=O)c3s2)cc2cn(C)nc12 [Compound 233, 2-(2,7-dimethyl-2H-indazol-5-yl)-6-(piperidin-4-yl)thiazolo[4,5-d]pyrimidin-7(6H)-one]	< 0.1	< 0.1	< 0.1	< 0.1	0.1 to 1
Cc1cc(-c2nc3ncn(C4CCN(C)CC4)c(=O)c3s2)cc2cn(C)nc12 [Compound 234, 2-(2,7-dimethyl-2H-indazol-5-yl)-6-(1-methylpiperidin-4-yl)thiazolo[4,5-d]pyrimidin-7(6H)-one]	0.1 to 1	0.1 to 1	0.1 to 1	< 0.1	1 to 10
Cc1cn2cc(-c3cc4ncn(C5CCNCC5)c(=O)c4s3)cc(F)c2n1 [Compound 235, 6-(8-fluoro-2-methylimidazo[1,2-α]pyridin-6-yl)-3-(piperidin-4-yl)thieno[3,2-d]pyrimidin-4(3H)-one]	< 0.1	< 0.1	< 0.1	< 0.1	0.1 to 1
Cc1cc(-c2cc3ncn(C4CCNCC4)c(=O)c3s2)cc2cn(C)nc12 [Compound 236, 6-(2,7-dimethyl-2H-indazol-5-yl)-3-(piperidin-4-yl)thieno[3,2-d]pyrimidin-4(3H)-one]	< 0.1	0.1 to 1	< 0.1	< 0.1	0.1 to 1
Cc1cc(-c2cc3ncn(C4CCN(C)CC4)c(=O)c3s2)cc2cn(C)nc12 [Compound 237, 6-(2,7-dimethyl-2H-indazol-5-yl)-3-(1-methylpiperidin-4-yl)thieno[3,2-d]pyrimidin-4(3H)-one]	0.1 to 1	0.1 to 1	0.1 to 1	< 0.1	1 to 10
Cc1cn2nc(-c3cc4ncn(C5CCNCC5)c(=O)c4s3)cc(C)c2n1 [Compound 238, 6-(2,8-dimethylimidazo[1,2-b]pyridazin-6-yl)-3-(piperidin-4-yl)thieno[3,2-d]pyrimidin-4(3H)-one]	0.1 to 1	0.1 to 1	0.1 to 1	< 0.1	1 to 10
Cc1cn2nc(-c3cc4ncn(C5CCN(C)CC5)c(=O)c4s3)cc(C)c2n1 [Compound 239, 6-(2,8-dimethylimidazo[1,2-b]pyridazin-6-yl)-3-(1-methylpiperidin-4-yl)thieno[3,2-d]pyrimidin-4(3H)-one]	1 to 10	1 to 10	1 to 10	< 0.1	> 10
